The numbers were not newly measured in US8680078B2, “Stable ophthalmic formulations” (Medivis SRL, priority 2008, dated 2014), which cites them from elsewhere.

For data set [1] the following is noted: pH of 5.6.

Read-outs that look alike come from different tables or passages of the source.

Consider `CCN[C@H]1C[C@H](C)S(=O)(=O)c2sc(S(N)(=O)=O)cc21.Cl` [dorzolamide hydrochloride], for which, in data set [1], the maximum solubility entry is recorded as “about 50 mg/mL”.
Turning to `CC(C)OC(=O)CCC/C=C\C[C@@H]1[C@@H](CC[C@@H](O)CCc2ccccc2)[C@H](O)C[C@@H]1O` [Latanoprost, latanoprost], the “time taken by the concentration of latanoprost to drop to 90% of an initial content” value (50° C.) was 198 h and the “time taken by the concentration of latanoprost to drop to 90% of an initial content” value (75° C.) is 32 h.
